Peptide text beside a SMILES is read from it.
Experiments:
[1] = biological target: T1, sweet taste substance receptor protein (hTAS1R2 and hTAS1R3) (Homo sapiens, UniProt Q7RTX0+Q8TE23); assay: nanovesicle based field effect transistor taste sensor, real-time source-drain current / conductance; assay type: biochemical; details: for fit of sensor signals to the hill equation model: FIG. 4C; for signal generating from the taste sensor (sensitivity ΔG/G0): FIG. 3C
T1 construct: HA (N); expressed in transfected cells
T1 sequence (Q8TE23 20-839): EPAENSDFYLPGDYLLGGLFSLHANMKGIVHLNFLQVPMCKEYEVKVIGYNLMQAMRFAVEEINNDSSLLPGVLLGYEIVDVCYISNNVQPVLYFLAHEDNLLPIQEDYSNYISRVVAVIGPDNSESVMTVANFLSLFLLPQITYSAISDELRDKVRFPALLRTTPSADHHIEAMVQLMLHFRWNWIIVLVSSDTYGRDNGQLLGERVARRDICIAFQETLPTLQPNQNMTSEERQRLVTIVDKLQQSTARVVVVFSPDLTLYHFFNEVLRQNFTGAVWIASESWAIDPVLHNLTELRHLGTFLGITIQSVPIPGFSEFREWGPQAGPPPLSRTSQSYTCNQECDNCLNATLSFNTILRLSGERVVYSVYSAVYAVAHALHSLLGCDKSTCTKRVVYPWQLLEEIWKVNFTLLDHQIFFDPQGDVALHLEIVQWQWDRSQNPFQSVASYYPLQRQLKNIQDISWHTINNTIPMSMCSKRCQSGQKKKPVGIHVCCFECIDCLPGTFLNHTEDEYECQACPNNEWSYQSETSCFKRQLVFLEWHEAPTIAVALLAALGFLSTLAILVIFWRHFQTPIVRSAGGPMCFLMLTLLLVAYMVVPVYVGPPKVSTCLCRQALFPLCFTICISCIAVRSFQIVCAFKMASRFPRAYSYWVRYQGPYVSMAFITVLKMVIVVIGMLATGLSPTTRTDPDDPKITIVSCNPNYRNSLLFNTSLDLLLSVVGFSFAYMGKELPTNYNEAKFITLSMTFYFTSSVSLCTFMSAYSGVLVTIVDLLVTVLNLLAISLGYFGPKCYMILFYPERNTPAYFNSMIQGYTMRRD
T1 sequence (Q7RTX0 21-852): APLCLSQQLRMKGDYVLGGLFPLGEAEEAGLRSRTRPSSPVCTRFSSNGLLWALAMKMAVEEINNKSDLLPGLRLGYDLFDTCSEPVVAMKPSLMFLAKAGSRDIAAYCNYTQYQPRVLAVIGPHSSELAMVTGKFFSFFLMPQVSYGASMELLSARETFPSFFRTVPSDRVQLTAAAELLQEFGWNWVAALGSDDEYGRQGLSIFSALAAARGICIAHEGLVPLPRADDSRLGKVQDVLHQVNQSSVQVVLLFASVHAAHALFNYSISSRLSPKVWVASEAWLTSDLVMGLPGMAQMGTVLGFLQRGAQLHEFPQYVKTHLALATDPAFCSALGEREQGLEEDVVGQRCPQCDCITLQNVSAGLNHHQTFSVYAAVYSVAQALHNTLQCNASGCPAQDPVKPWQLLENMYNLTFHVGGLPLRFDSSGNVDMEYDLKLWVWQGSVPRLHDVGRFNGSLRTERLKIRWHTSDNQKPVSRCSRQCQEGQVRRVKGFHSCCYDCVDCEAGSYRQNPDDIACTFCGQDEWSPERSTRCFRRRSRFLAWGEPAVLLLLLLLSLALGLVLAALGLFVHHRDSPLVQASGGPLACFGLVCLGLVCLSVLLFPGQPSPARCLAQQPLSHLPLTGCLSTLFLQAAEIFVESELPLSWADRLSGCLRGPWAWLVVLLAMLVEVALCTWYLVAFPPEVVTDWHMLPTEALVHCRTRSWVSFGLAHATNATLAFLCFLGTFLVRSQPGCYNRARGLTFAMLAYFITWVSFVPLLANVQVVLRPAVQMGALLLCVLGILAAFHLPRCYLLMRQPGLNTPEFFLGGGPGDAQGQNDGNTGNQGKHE
Protocol: A sweet taste substance (Sigma Aldrich, USA) with a 1 mM concentration was dissolved into PBS (phosphate buffered saline; Gibco, USA) containing 2 mM CaCl2 therein. The resulting solution was sequentially diluted 1/10 times to acquire a diluent. The diluent was exposed to the nanovesicle based field effect transistor manufactured in the embodiment 2. A current between the source electrode and drain electrode was measured in a real time manner to check a reaction magnitude. A sensitivity ΔG/G0 of a sweet taste substance relative to sucrose in the nanovesicle based field effect transistor was measured in a real time manner.

[2] = biological target: T1, sweet taste substance receptor protein (hTAS1R2 and hTAS1R3); assay: as above; assay type: biochemical; details: for signal change: 100 mM added
[3] = biological target: T2, heterodimeric receptor including the hTAS1R2 and hTAS1R3 (Homo sapiens, UniProt Q7RTX0+Q8TE23); assay: Ca2+ dependent fluorescence signal in transformed HEK-293 cell line; assay type: cell-based; details: 10 mM sucrose added, Fura 2-AM, ratio of 340/380 nm stimulation, emission 510 nm, FIG. 2C
T2 construct: HA (N); expressed in transfected cells
T2 sequence (Q8TE23 20-839): T1 sequence (Q8TE23 20-839)
T2 sequence (Q7RTX0 21-852): T1 sequence (Q7RTX0 21-852)
Protocol: (§1) A signal transfer via a sweet taste substance of each of the nanovesicle and HEK-293 cell was checked wherein the HEK-293 cell has the expressed heterodimeric receptor including the hTAS1R2 and hTAS1R3 manufactured in the embodiment 1, and the nanovesicle is separated from the HEK-293 cell.
(§2) For this, the transformed HEK-293 cell line was incubated for three or more days. Then, 5 μm Fura 2-AM (acetoxymethyl)(calcium indicator, Invitrogen) was loaded on the cells in an imaging buffer solution (NaCl 140 mM, KCl 5 mM, MgCl2 1 mM, CaCl2 2 mM, HEPES 10 mM, Glucose 10 mM, 0.1% Pluronic F-127, pH 7.4). A non-specific esterase residing in the cell performs hydrolysis for an AM ester group to be changed into a form sensitive to Ca^2+ ions. […]
(§3) After three times cleaning using respective solutions, a ligand and ATP (100 uM) for a Ca^2+ dependent fluorescence signal was injected thereto, and, dual stimulations (340 nm, and 380 nm) were applied thereto. Thereafter, a fluorescence signal due to Ca^2+ at 510 nm was measured using a spectrofluorophotometer. The fluorescence signal was obtained at 2 seconds intervals. A final result was shown as a ratio between fluorescence strengths resulting from the dual stimulations.

[4] = biological target: T3, nanovesicle including TAS1R2 and TAS1R3 (Homo sapiens, UniProt Q7RTX0+Q8TE23); assay: Ca2+ dependent fluorescence signal in nanovesicle separated from transformed HEK-293 cell line; assay type: biochemical; details: 10 mM sucrose added, FIG. 2F
T3 construct: HA (N); expressed in transfected cells
T3 sequence (Q8TE23 20-839): T1 sequence (Q8TE23 20-839)
T3 sequence (Q7RTX0 21-852): T1 sequence (Q7RTX0 21-852)
Protocol: as §1, §2, §3

## O=C(CO)[C@@H](O)[C@H](O)[C@H](O)CO [fructose]
[1]
  fit of sensor signals to the hill equation model: comply with the hill equation model

## O=C[C@H](O)[C@@H](O)[C@H](O)[C@H](O)C(=O)O [D-glucuronic acid]
[2]; FIG. 4B
  signal change: no signal change

## COC(=O)[C@H](Cc1ccccc1)NC(=O)[C@@H](N)CC(=O)O [aspartame] (H-Asp-Phe-OMe)
[1]
  fit of sensor signals to the hill equation model: comply with the hill equation model
[1]; compared with sucrose
  sensitivity as a working substance relative to sucrose: more sensitive

## OC[C@H]1O[C@@H](O[C@H]2[C@H](O)[C@@H](O)[C@H](O)O[C@@H]2CO)[C@H](O)[C@@H](O)[C@@H]1O [cellobios]
[2]; FIG. 4B
  signal change: no signal change

## OC[C@H]1O[C@@](CO)(O[C@H]2O[C@H](CO)[C@@H](O)[C@H](O)[C@H]2O)[C@@H](O)[C@@H]1O [sucrose]
[3]
  fluorescence emission strength: relatively increases
[4]
  fluorescence emission strength: relatively increases
[1]; 100 uM concentration
  signal generating from the taste sensor (sensitivity ΔG/G0): decreases
[1]; 500 uM concentration
  signal generating from the taste sensor (sensitivity ΔG/G0): rapidly decreases
[1]
  fit of sensor signals to the hill equation model: comply with the hill equation model
[2]; 500 uM added, FIG. 4B
  reaction magnitude decrease: about 5%
[2]; 1 mM concentration, contained in coffee and Darjeeling tea, FIG. 4D
  detection in real samples: may be detected
